Experimental data from article PMC10600247, “Impact of C- and N-terminal protection on the stability, metal chelation and antimicrobial properties of calcitermin” (Scientific Reports, 2023).
Residues, ends and D or L forms follow the SMILES beside them.

Test system: S. aureus (ATCC 25293)
Test: In vitro anti-S. aureus CFU assay
Type: cell-based, Staphylococcus aureus
Details: 3 h, pH 5.4; for mean CFU number ± S.D.: per 0.1 mL
Protocol: All microbes were grown at 37 °C in Tryptic Soy Broth (TSB; Biolife, Milan, Italy) or Tryptic Soy Agar plates (TSA, Biolife, Milan, Italy). Peptides were tested at a final concentration C = 0.128, 0.064, 0.032 mg/mL, in the presence or absence of ZnCl2 or CuCl2, at a M:L molar ratio 0.9:1. Briefly, all the microbes were expanded in TSB at 37 °C under agitation for 12 h and then sub-cultured by 1:10 dilution in TSB under the same conditions until reaching OD600nm = 0.3–0.4, as measured by spectrophotometric reading using a GENESYS 10S UV–Vis spectrophotometer (Thermo Scientific, Milan, Italy), corresponding to 0.9–1.2 × 10^7 colony forming units (CFU) per mL, 1.5–2 × 10^8 CFU/mL and 2.4–3.2 × 10^8 CFU/mL, for C. albicans, S. aureus and E. coli respectively. The cultures were then centrifuged at 4500 rpm for 10 min in a SL 8 centrifuge (TX-150 Rotor) (Thermo Scientific, Milan, Italy), and the cellular pellets were washed with PBS pH 5.4. Pelletized cultures were then suspended in 10 mL of PBS pH 5.4, then the suspensions were diluted to a final concentration of 10^4 CFU/mL. Aliquots of 100 µl (corresponding to 10^3 CFU) were seeded in each well of a 96-wells plate. 3 µl of TSB at pH 5.4 were added to each well to obtain a final 1.5% TSB concentration in the culture medium. Peptides were serially diluted in PBS pH 5.4 to C = 0.257, 0.128, and 0.064 mg/mL. ZnCl2 and CuCl2 solutions were added where requested to obtain a M:L ratio 0.9:1. 100 µl of the prepared peptides ± ZnCl2/CuCl2 solutions were then added to each well, obtaining the final 0.128, 0.064 and 0.032 mg/mL peptide concentrations in a total 0.2 mL volume. PBS alone and PBS + ZnCl2/CuCl2 solutions were included as controls. The plates were incubated at 37 °C on a platform rocker with slow stirring for 3 and 24 h. At the end of the incubation times, 100 µl aliquots were taken from each sample and diluted in PBS pH 5.4 to be seeded on TSA plates. Specifically, aliquots were diluted 1:10 at 3 h, and 1:200, 1:100,000 and 1:10 at 24 h, for C. albicans, E. coli, and S. aureus respectively. After incubation for 24 h at 37 °C, grown CFUs were enumerated. Samples were assayed in triplicate in two independent experiments. Student’s t-test was used for the evaluation of significance in biological tests; a p value ≤ 0.05 was considered significant.

[1] = peptide 0.032 mg/mL + CuCl2 (0.9:1)
[2] = peptide 0.032 mg/mL + ZnCl2 (0.9:1)
[3] = peptide 0.064 mg/mL + CuCl2 (0.9:1)
[4] = peptide 0.064 mg/mL + ZnCl2 (0.9:1)
[5] = peptide 0.128 mg/mL + CuCl2 (0.9:1)
[6] = peptide 0.128 mg/mL + ZnCl2 (0.9:1)

Structure (SMILES) | CFU decrease/increase with respect to untreated controls [1] | mean CFU number ± S.D. [1] [CFU] | CFU decrease/increase with respect to untreated controls [2] | mean CFU number ± S.D. [2] [CFU] | CFU decrease/increase with respect to untreated controls [3] | mean CFU number ± S.D. [3] [CFU] | CFU decrease/increase with respect to untreated controls [4] | mean CFU number ± S.D. [4] [CFU] | CFU decrease/increase with respect to untreated controls [5] | mean CFU number ± S.D. [5] [CFU] | mean CFU number ± S.D. [6] [CFU] | CFU decrease/increase with respect to untreated controls (peptide alone 0.032 mg/mL) | mean CFU number ± S.D. (peptide alone 0.032 mg/mL) [CFU] | CFU decrease/increase with respect to untreated controls (peptide alone 0.064 mg/mL) | mean CFU number ± S.D. (peptide alone 0.064 mg/mL) [CFU] | CFU decrease/increase with respect to untreated controls (peptide alone 0.128 mg/mL) | mean CFU number ± S.D. (peptide alone 0.128 mg/mL) [CFU]
CC[C@H](C)[C@H](NC(=O)[C@H](C)NC(=O)[C@@H](NC(C)=O)C(C)C)C(=O)N[C@@H](C)C(=O)N[C@@H](CC(C)C)C(=O)N[C@@H](CCCCN)C(=O)N[C@@H](C)C(=O)N[C@@H](C)C(=O)N[C@@H](Cc1c[nH]cn1)C(=O)N[C@@H](Cc1ccc(O)cc1)C(=O)N[C@@H](Cc1c[nH]cn1)C(=O)N[C@H](C(=O)N[C@@H](Cc1c[nH]cn1)C(=O)N[C@@H](CCCCN)C(=O)N[C@@H](CCC(=O)O)C(=O)O)[C@@H](C)O [L1, Ac-VAIALKAAHYHTHKE] (Ac-VAIALKAAHYHTHKE-OH) | +20% | 193 ± 54 | +14% | 183 ± 24 | +37% | 221 ± 66 | +19% | 191 ± 6 | +3% | 166 ± 35 | 87 ± 8 | +34% | 215 ± 68 | -4% | 155 ± 31 | +31% | 211 ± 49
CC[C@H](C)[C@H](NC(=O)[C@H](C)NC(=O)[C@@H](NC(C)=O)C(C)C)C(=O)N[C@@H](C)C(=O)N[C@@H](CC(C)C)C(=O)N[C@@H](CCCCN)C(=O)N[C@@H](C)C(=O)N[C@@H](C)C(=O)N[C@@H](Cc1c[nH]cn1)C(=O)N[C@@H](Cc1ccc(O)cc1)C(=O)N[C@@H](Cc1c[nH]cn1)C(=O)N[C@H](C(=O)N[C@@H](Cc1c[nH]cn1)C(=O)N[C@@H](CCCCN)C(=O)N[C@@H](CCC(=O)O)C(N)=O)[C@@H](C)O [L2, Ac-VAIALKAAHYHTHKE-NH2] (Ac-VAIALKAAHYHTHKE-NH2) | -17% | 129± 41 | 0% | 177 ± 11 | -18% | 127 ± 30 | -17% | 147 ± 16 | +6% | 194 ± 4 | 82 ± 16 | -12% | 157 ± 35 | +14% | 201 ± 40 | +21% | 213 ± 23
